Active and inactive are the calls of the source. No rule for the calls is given here.

Assay [1] concerns the target T1, Dual specificity mitogen-activated protein kinase kinase 4 (Homo sapiens, UniProt P45985).
T1 sequence (P45985 whole entry): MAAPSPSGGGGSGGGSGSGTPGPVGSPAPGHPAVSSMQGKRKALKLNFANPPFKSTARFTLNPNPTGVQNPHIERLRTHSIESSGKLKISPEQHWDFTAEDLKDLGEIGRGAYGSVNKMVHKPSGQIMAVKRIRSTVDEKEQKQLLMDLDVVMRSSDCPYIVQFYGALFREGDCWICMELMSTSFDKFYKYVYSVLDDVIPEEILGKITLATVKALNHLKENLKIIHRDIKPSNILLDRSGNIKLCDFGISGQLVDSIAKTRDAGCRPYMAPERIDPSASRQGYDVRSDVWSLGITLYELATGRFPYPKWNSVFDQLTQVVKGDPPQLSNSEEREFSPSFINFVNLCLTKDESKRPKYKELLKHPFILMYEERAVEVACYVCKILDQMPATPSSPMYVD
The assay is described as follows: Inhibition of GST-tagged human MKK4 expressed in Escherichia coli (BL21(DE3) pLysS) co-expressing human MEKK catalytic domain using biotinylated and GST-tagged rat GST-KN-SAPKalpha substrate incubated for 2 hrs by time-resolved fluorescence based assay.

Assay [2] addresses T2, Dual specificity mitogen-activated protein kinase kinase 7 (Homo sapiens, UniProt O14733).
T2 sequence (O14733 whole entry): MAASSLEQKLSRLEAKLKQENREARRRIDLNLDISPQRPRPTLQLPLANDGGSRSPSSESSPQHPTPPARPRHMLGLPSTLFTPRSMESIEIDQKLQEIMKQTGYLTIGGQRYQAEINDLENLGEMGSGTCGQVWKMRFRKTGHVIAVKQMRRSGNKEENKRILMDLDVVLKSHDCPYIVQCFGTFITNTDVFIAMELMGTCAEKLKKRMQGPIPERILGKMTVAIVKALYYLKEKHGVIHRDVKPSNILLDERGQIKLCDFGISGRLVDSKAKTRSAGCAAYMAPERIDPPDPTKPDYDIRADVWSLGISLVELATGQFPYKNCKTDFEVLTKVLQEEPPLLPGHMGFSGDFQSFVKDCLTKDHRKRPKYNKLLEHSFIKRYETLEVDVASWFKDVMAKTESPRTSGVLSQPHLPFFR
Description: Inhibition of GST-tagged human MKK7 expressed in Escherichia coli (BL21(DE3) pLysS) co-expressing human MEKK catalytic domain using biotinylated and GST-tagged rat GST-KN-SAPKalpha substrate incubated for 1 hr by time-resolved fluorescence based assay.

Assay [3] deals with Mus musculus. The assay is described as follows: Inhibition of anti-CD3 antibody-induced IL2 production in Balb/c mouse dosed intravenously 5 mins before anti-CD3 antibody injection and measured 2 hrs post-challenge by ELISA. The format is functional, organism-based. For orientation: An ELISA detects its analyte on a solid surface through an enzyme-linked reagent.
The subject of assay [4] is Mus musculus. The assay is described as follows: Inhibition of anti-CD3 antibody-induced IFNgamma production in Balb/c mouse dosed intravenously 5 mins before anti-CD3 antibody injection and measured 2 hrs post-challenge by ELISA. The format is functional, organism-based.
Assay [5] deals with Mus musculus. The assay is described as follows: Inhibition of anti-CD3 antibody-induced IL4 production in Balb/c mouse dosed intravenously 5 mins before anti-CD3 antibody injection and measured 2 hrs post-challenge by ELISA. Type of assay: functional, organism-based.

On to `Cc1nc(N2CCCCC2)c2c(n1)[nH]c1ccc(C(N)=O)cc12`, for which the IC50 in assay [1] and in assay [2] was under 1 µM throughout. Besides, the inhibition entry in the assay on Mus musculus [3], in the assay on Mus musculus [4] and in the assay with Mus musculus [5] was “Active” in each case.

As usually defined, the IC50 is the point on the concentration scale where inhibition reaches its midpoint. A high value points to weaker potency in that assay.
